Assay results published in patent publication US10799478B2, “Treatment of androgen deprivation therapy associated symptoms” (priority 2014, dated 2020).

Legend:
CD [Crl:CD (SD)] rats = test: Four Week Oral Toxicity Study in Rats; assay type: in vivo, rat; conditions: for decrease in albumin / decrease in total protein / increase in alkaline phosphatase: females
Procedure: (§1) Three treatment groups of 10 male and 10 female CD® [Crl:CD® (SD)] rats are administered the test article at respective dose levels of 15, 150, and 1500 mg/kg/day. […] The test article or vehicle is administered to all groups via oral gavage, once a day for 28 consecutive days, at a dose volume of 15 mL/kg. Additionally, three groups of 18 animals/sex/group serves as toxicokinetic (TK) animals and receives the test article in the same manner and dose volume as the main study groups at respective dose levels of 15, 150, and 1500 mg/kg/day. One additional group of three animals/sex serves as the toxicokinetic control and receives the vehicle in the same manner and dose volume as the treated groups.
(§2) Observations for morbidity, mortality, injury, and the availability of food and water are conducted twice daily for all animals. Observations for clinical signs are conducted weekly for main study animals only. Body weights were measured and recorded weekly for all animals and food consumption is measured and recorded weekly for main study animals. Ophthalmoscopic examinations are conducted pretest on all animals and prior to terminal necropsy for main study animals only. Blood samples for clinical pathology evaluations are collected from all main study animals at necropsy. Urine samples are collected on the last day of dosing. Blood samples for determination of the plasma concentrations of the test article are collected from TK animals at designated time points on Days 1 and 28. After the final blood collection, the TK animals are euthanized and the carcasses are discarded without further evaluation. Liver samples for hepatic enzyme induction analysis are collected at terminal necropsy from main study animals. At study termination, necropsy examinations are performed, organ weights are recorded, and prostate and seminal vesicle tissues are microscopically examined. Additional microscopic examination is performed on the left testis from the first five male rats/group at necropsy.

[1] = Four Week Oral Toxicity Study in Rats; assay type: in vivo, rat; conditions: CD [Crl:CD (SD)], rat
Procedure: as §1, §2

healthy human volunteers = test: Phase Ia Study in Healthy Volunteers; assay type: in vivo; conditions: for Change from Baseline for Lean Muscle, Comparison to Placebo Difference / Change from Baseline for Lean Muscle, LS Mean: Day 28
beagle dogs = test: Four Week Oral Toxicity Study in Dogs; assay type: in vivo, dog
Procedure: […] One additional group of three animals/sex serves as the control and receives the vehicle, 80% PEG 3350/20% Vitamin E TPGS (v/v) via oral capsule. The test article or vehicle is administered to all groups via oral capsule, twice a day for 28 consecutive days, at a dose volume of 1.5 mL/kg/dose.
Observations for mortality, morbidity, injury, and the availability of food and water are conducted twice daily for all animals. Detailed clinical observations are conducted weekly. Body weights are measured and recorded the day after receipt, prior to randomization, and weekly during the study. Food consumption is measured and recorded weekly. Ophthalmoscopic examinations are conducted pretest and prior to the terminal necropsy. Physical examinations are conducted pretest. Neurological examinations are conducted during Weeks 1 and 4. ECG examinations are conducted twice prior to the initiation of dosing and prior to and approximately 2 hours (±15 minutes) after the morning test article administration on Days 3 and 26. […] The toxicokinetic parameters are determined for the test article from concentration-time data in the test species. At study termination, necropsy examinations are performed, organ weights are recorded, and testes, epididymis, and prostates are microscopically examined.

Orx rats = test: Orchidectomized Rat Assay; assay type: in vivo; conditions: for SV Weight, % Sham: once daily 2 months
healthy volunteers = test: Treatment of healthy volunteers (12 weeks); assay type: in vivo, human; conditions: after 12 weeks in healthy volunteers

Compound: CC(C)OC(=O)N[C@H]1Cc2c(n(Cc3ccccn3)c3ccc(C#N)cc23)C1 (single isomer, unassigned) [Example 1]
- systemic exposure (AUC0-24 hr) increase with dose (CD [Crl:CD (SD)] rats; 15, 150, 1500 mg/kg/day oral gavage): less-than-dose-proportional
- unscheduled deaths (CD [Crl:CD (SD)] rats; 15-1500 mg/kg/day, 28 days): no unscheduled deaths
- decrease in albumin (CD [Crl:CD (SD)] rats; 150 mg/kg/day): 12%
- decrease in total protein (CD [Crl:CD (SD)] rats; 150 mg/kg/day): 9%
- increase in alkaline phosphatase (CD [Crl:CD (SD)] rats; 150 mg/kg/day): 1.33 fold
- decrease in albumin (CD [Crl:CD (SD)] rats; 1500 mg/kg/day): 12%
- decrease in total protein (CD [Crl:CD (SD)] rats; 1500 mg/kg/day): 10%
- increase in alkaline phosphatase (CD [Crl:CD (SD)] rats; 1500 mg/kg/day): 1.45 fold
- hepatic microsomal enzyme induction (CD [Crl:CD (SD)] rats; following 28 days of dosing): no evidence
- NOAEL at 28 days ([1]; both sexes, in vivo, 4 weeks oral gavage, highest dose administered): 1500 mg/kg/day
- AUC(0-t) ([1]; female, plasma, oral, females, 1500 mg/kg/day, read-out: Mean steady-state systemic exposure (AUC0-24 hr)): 217 µg·h/mL
- changes from baseline in prostate-specific antigen levels compared with placebo (healthy human volunteers; any time point or any dose): no significant changes
- Change from Baseline for Lean Muscle, Comparison to Placebo Difference (healthy human volunteers; females, 5 mg): 2298.22 g
- Change from Baseline for Lean Muscle, LS Mean (healthy human volunteers; females, 5 mg): 1555.95 g
- Change from Baseline for Lean Muscle, Comparison to Placebo Difference (healthy human volunteers; females, 15 mg): 3661.85 g
- Change from Baseline for Lean Muscle, LS Mean (healthy human volunteers; females, 15 mg): 2919.58 g
- Change from Baseline for Lean Muscle, Comparison to Placebo Difference (healthy human volunteers; females, 25 mg): 2224.51 g
- Change from Baseline for Lean Muscle, LS Mean (healthy human volunteers; females, 25 mg): 1482.24 g
- Change from Baseline for Lean Muscle, Comparison to Placebo Difference (healthy human volunteers; females, 75 mg): 2325.92 g
- Change from Baseline for Lean Muscle, LS Mean (healthy human volunteers; females, 75 mg): 1583.65 g
- Change from Baseline for Lean Muscle, Comparison to Placebo Difference (healthy human volunteers; males, 1 mg): 1548.97 g
- Change from Baseline for Lean Muscle, LS Mean (healthy human volunteers; males, 1 mg): 675.52 g
- Change from Baseline for Prostate Specific Antigen, Comparison to Placebo Difference (healthy human volunteers; males, 1 mg, day 14): -0.10 µg/L
- Change from Baseline for Prostate Specific Antigen, LS Mean (healthy human volunteers; males, 1 mg, day 14): -0.06 µg/L
- Change from Baseline for Prostate Specific Antigen, Comparison to Placebo Difference (healthy human volunteers; males, 1 mg, day 28): -0.09 µg/L
- Change from Baseline for Prostate Specific Antigen, LS Mean (healthy human volunteers; males, 1 mg, day 28): -0.05 µg/L
- Change from Baseline for Prostate Specific Antigen, Comparison to Placebo Difference (healthy human volunteers; males, 1 mg, day 35): -0.01 µg/L
- Change from Baseline for Prostate Specific Antigen, LS Mean (healthy human volunteers; males, 1 mg, day 35): 0.02 µg/L
- Change from Baseline for Lean Muscle, Comparison to Placebo Difference (healthy human volunteers; males, 5 mg): 1461.11 g
- Change from Baseline for Lean Muscle, LS Mean (healthy human volunteers; males, 5 mg): 587.66 g
- Change from Baseline for Prostate Specific Antigen, Comparison to Placebo Difference (healthy human volunteers; males, 5 mg, day 14): 0.16 µg/L
- Change from Baseline for Prostate Specific Antigen, LS Mean (healthy human volunteers; males, 5 mg, day 14): 0.20 µg/L
- Change from Baseline for Prostate Specific Antigen, Comparison to Placebo Difference (healthy human volunteers; males, 5 mg, day 28): -0.05 µg/L
- Change from Baseline for Prostate Specific Antigen, LS Mean (healthy human volunteers; males, 5 mg, day 28): -0.00 µg/L
- Change from Baseline for Prostate Specific Antigen, Comparison to Placebo Difference (healthy human volunteers; males, 5 mg, day 35): 0.17 µg/L
- Change from Baseline for Prostate Specific Antigen, LS Mean (healthy human volunteers; males, 5 mg, day 35): 0.20 µg/L
- Change from Baseline for Lean Muscle, Comparison to Placebo Difference (healthy human volunteers; males, 15 mg): 3202.54 g
- Change from Baseline for Lean Muscle, LS Mean (healthy human volunteers; males, 15 mg): 2329.08 g
- Change from Baseline for Prostate Specific Antigen, Comparison to Placebo Difference (healthy human volunteers; males, 15 mg, day 14): -0.16 µg/L
- Change from Baseline for Prostate Specific Antigen, LS Mean (healthy human volunteers; males, 15 mg, day 14): -0.11 µg/L
- Change from Baseline for Prostate Specific Antigen, Comparison to Placebo Difference (healthy human volunteers; males, 15 mg, day 28): -0.31 µg/L
- Change from Baseline for Prostate Specific Antigen, LS Mean (healthy human volunteers; males, 15 mg, day 28): -0.27 µg/L
- Change from Baseline for Prostate Specific Antigen, Comparison to Placebo Difference (healthy human volunteers; males, 15 mg, day 35): 0.22 µg/L
- Change from Baseline for Prostate Specific Antigen, LS Mean (healthy human volunteers; males, 15 mg, day 35): 0.25 µg/L
- Change from Baseline for Lean Muscle, Comparison to Placebo Difference (healthy human volunteers; males, 25 mg): 1829.63 g
- Change from Baseline for Lean Muscle, LS Mean (healthy human volunteers; males, 25 mg): 956.18 g
- Change from Baseline for Prostate Specific Antigen, Comparison to Placebo Difference (healthy human volunteers; males, 25 mg, day 14): -0.19 µg/L
- Change from Baseline for Prostate Specific Antigen, LS Mean (healthy human volunteers; males, 25 mg, day 14): -0.15 µg/L
- Change from Baseline for Prostate Specific Antigen, Comparison to Placebo Difference (healthy human volunteers; males, 25 mg, day 28): -0.27 µg/L
- Change from Baseline for Prostate Specific Antigen, LS Mean (healthy human volunteers; males, 25 mg, day 28): -0.22 µg/L
- Change from Baseline for Prostate Specific Antigen, Comparison to Placebo Difference (healthy human volunteers; males, 25 mg, day 35): -0.17 µg/L
- Change from Baseline for Prostate Specific Antigen, LS Mean (healthy human volunteers; males, 25 mg, day 35): -0.14 µg/L
- Change from Baseline for Lean Muscle, Comparison to Placebo Difference (healthy human volunteers; males, 75 mg): -683.76 g
- Change from Baseline for Lean Muscle, LS Mean (healthy human volunteers; males, 75 mg): -1557.21 g
- Change from Baseline for Prostate Specific Antigen, Comparison to Placebo Difference (healthy human volunteers; males, 75 mg, day 14): -0.17 µg/L
- Change from Baseline for Prostate Specific Antigen, LS Mean (healthy human volunteers; males, 75 mg, day 14): -0.13 µg/L
- Change from Baseline for Prostate Specific Antigen, Comparison to Placebo Difference (healthy human volunteers; males, 75 mg, day 28): 0.03 µg/L
- Change from Baseline for Prostate Specific Antigen, LS Mean (healthy human volunteers; males, 75 mg, day 28): 0.07 µg/L
- Change from Baseline for Prostate Specific Antigen, Comparison to Placebo Difference (healthy human volunteers; males, 75 mg, day 35): 0.00 µg/L
- Change from Baseline for Prostate Specific Antigen, LS Mean (healthy human volunteers; males, 75 mg, day 35): 0.03 µg/L
- increase of exposure with dose (beagle dogs; dogs given 6 and 60 mg/kg/day, plateau at 60 mg/kg/day): less than dose proportional
- gender effect on exposure (beagle dogs; male vs female dogs): no gender effect
- LV-TA (cm2) ± SD (Orx rats; 1 mg/Kg/d): 0.3378 ± 7.08E−03 cm2
- LV-TBMC (mg) ± SD (Orx rats; 1 mg/Kg/d): 1.54 ± 0.0256 mg
- LV-TBMD (mg/cm3) ± SD (Orx rats; 1 mg/Kg/d): 507.4 ± 6.931 mg/cm3
- SV Weight, % Sham (Orx rats; 1 mg/Kg/d po): 5.6 % Sham
- LV-TA (cm2) ± SD (Orx rats; 3 mg/Kg/d): 0.362 ± 0.0138 ^ cm2
- LV-TBMC (mg) ± SD (Orx rats; 3 mg/Kg/d): 1.79 ± 0.095 mg
- LV-TBMD (mg/cm3) ± SD (Orx rats; 3 mg/Kg/d): 549 ± 15.965 mg/cm3
- SV Weight, % Sham (Orx rats; 3 mg/Kg/d po): 5.5 % Sham
- LV-TA (cm2) ± SD (Orx rats; 10 mg/Kg/d): 0.3521 ± 0.0125 ^ cm2
- LV-TBMC (mg) ± SD (Orx rats; 10 mg/Kg/d): 1.7757 ± 0.0607 mg
- LV-TBMD (mg/cm3) ± SD (Orx rats; 10 mg/Kg/d): 562.843 ± 16.104 mg/cm3
- SV Weight, % Sham (Orx rats; 10 mg/Kg/d po): 6.0 % Sham
- LV-TA (cm2) ± SD (Orx rats; 20 mg/Kg/d): 0.3563 ± 0.0102 ^ cm2
- LV-TBMD (mg/cm3) ± SD (Orx rats; 20 mg/Kg/d): 529.357 ± 10.052 mg/cm3
- SV Weight, % Sham (Orx rats; 20 mg/Kg/d po): 6.1 % Sham
- hematocrit (healthy volunteers): no significant changes
- prostate specific antigen (PSA) (healthy volunteers): no significant changes
